“And” between values parts separate entries of the source, which are not always exact repeats. Equal entries are not always repeated.
Tests used:
MAO-B = molecular target: T1, MAO-B (Homo sapiens, UniProt P27338); experiment: continuous spectrophotometric MAO-B inhibition assay; format: biochemical; settings: for LiPE: LiPE = pIC50 - QPlogPo/w, new analogs and pargyline; for IC50: dilution series 50 μM to 1 nM, duplicates, read-out: MAO-B inhibition IC50; for MAO-B inhibition %: 10 µM, 2h
T1 construct: purchased Sigma-Aldrich
T1 sequence (P27338 1-520): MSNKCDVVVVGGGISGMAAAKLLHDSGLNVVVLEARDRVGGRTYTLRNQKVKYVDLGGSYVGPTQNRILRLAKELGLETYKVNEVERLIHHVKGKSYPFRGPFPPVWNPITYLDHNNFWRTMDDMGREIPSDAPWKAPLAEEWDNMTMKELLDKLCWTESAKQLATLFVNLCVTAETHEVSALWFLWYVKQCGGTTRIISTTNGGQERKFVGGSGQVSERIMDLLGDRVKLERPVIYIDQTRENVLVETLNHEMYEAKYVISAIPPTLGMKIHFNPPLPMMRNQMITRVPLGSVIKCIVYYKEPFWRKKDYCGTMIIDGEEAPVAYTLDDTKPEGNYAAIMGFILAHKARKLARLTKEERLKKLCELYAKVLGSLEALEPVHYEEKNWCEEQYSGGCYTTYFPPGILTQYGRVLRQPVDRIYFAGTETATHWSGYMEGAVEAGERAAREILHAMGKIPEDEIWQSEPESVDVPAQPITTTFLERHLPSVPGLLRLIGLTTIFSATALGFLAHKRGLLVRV
Description: Both monoamine oxidase A (MAO-A) and B (MAO-B) protein and the reagents for the chromogenic solution of vanillic acid (4-hydroxy-3-methoxylbenzoic acid, 97% purity), 4-aminoantipyrine (reagent grade), horseradish peroxidase and the substrate tyramine hydrochloride (minimum 99% purity) as well as the potassium phosphate buffer, which was prepared using potassium phosphate dibasic trihydrate (≥99% ReagentPlus™) and potassium phosphate monobasic (minimum 98% purity, molecular biology tested), were purchased from Sigma-Aldrich (St. Louis, MO, USA) for the spectrophotometric assay.
The protocol for continuous spectrophotometric assay (Holt et al., [1997]) was followed in the activity measurements. The assay was performed in 0.2 M potassium phosphate buffer pH 7.6 on 96-well plates (Nunc™ 96F microwell plate without a lid, Nunc A/S, Roskilde, DK) in 200 μl total volume. The chromogenic solution containing 1 mM vanillic acid, 500 μM 4-aminoantipyrine and 8 U/ml horseradish peroxidase in 0.2 M potassium phosphate buffer pH 7.6 was mixed anew for each measurement. 5 mM tyramine solution was used as the substrate. In order to determine the activity of both MAO-B and MAO-A, concentration series as duplicates were prepared. The protein was combined with the chromogenic solution and incubated 30 min at 37°C. The background signal was measured using multilabel reader (Victor^TM X4, 2030 Multilabel Reader, PerkinElmer, Waltham, MA, USA) at A490 before reaching the total 200 μl volume by adding 20 μl of tyramine to final concentration of 0.5 mM on the plate. As a result, the final concentration of the chromogenic solution on the plate was 250 μM vanillic acid, 125 μM 4-aminoantipyrine and 2 U/ml horseradish peroxide. After adding the substrate, the plates were measured 300 times every 15 s using 1 s exposure time. The device was set to 37°C for the duration of the experiment.
The experiment conditions should produce absorbance change of ~0.35 (Holt et al., [1997]). […] The same wide panel of coumarin derivatives was additionally used to analyze the MAO-A inhibition at 100 μM (Table 1, Supplementary Table S1).
The measured data was then fitted on a curve using non-linear regression with the equation for log[inhibitor] vs. response. The IC50 values were therefore determined based on the curve fit. The fitted curves are shown on –log scale in Supplementary Figures S1, S2.

human CYP1A2 = molecular target: T2, human CYP1A2 (Homo sapiens, UniProt P05177); experiment: CYP1A2 inhibition, 7-ethoxyresorufin fluorescence assay; format: biochemical
T2 construct: purchased Corning Inc
T2 sequence (P05177 1-516): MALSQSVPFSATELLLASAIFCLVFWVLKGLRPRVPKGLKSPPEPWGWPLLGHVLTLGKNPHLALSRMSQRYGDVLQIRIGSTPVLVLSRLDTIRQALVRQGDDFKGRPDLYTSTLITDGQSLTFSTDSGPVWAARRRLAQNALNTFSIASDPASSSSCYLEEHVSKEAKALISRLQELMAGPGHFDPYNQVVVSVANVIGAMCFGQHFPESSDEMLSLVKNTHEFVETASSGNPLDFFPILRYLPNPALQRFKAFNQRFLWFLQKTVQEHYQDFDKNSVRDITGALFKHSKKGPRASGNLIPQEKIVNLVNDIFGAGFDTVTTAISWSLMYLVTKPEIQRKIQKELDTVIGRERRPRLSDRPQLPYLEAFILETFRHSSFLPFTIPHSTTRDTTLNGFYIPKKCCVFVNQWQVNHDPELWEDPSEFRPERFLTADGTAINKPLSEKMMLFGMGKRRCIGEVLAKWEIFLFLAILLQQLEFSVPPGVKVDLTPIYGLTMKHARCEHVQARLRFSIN
Description: Inhibition of CYP1A2 activity was determined with commercial heterologously expressed human CYP1A2 enzyme (Corning Inc., Corning, NY, USA) as described earlier (Korhonen et al., [2005]). The metabolic activity was not in the scope of this particular study. The assay was adapted to the 96-well plate format. In each well, a 150 μL incubation volume contained 100 mM Tris-HCl buffer (pH 7.4), 4.2 mM MgCl2,1 μM 7-ethoxyresorufin, 0.5 pmol of cDNA expressed CYP1A2, […] inhibitor, and a NADPH-generating system. All inhibitors were dissolved in ethanol, and the final concentration of ethanol was 2% in all incubations. The reaction was initiated by adding the NADPH-regenerating system after a 10 min preincubation at 37°C, and after a 20 min incubation, the reaction was terminated by the addition of 110 μL of 80% acetonitrile/20% 0.5 M Tris base. The formed fluorescence was measured with a Victor2 plate counter (Perkin-Elmer Life Sciences Wallac, Turku, Finland) at 570 nm excitation and 616 nm emission.

In the case of `Cc1ccc2oc(=O)c(-c3ccc(C(F)(F)F)cc3)cc2c1` [derivative 5, 6-methyl-3-(4-(trifluoromethyl)phenyl)-2H-chromen-2-one], the inhibition at 10 µM (MAO-B) is reported as 105%, the LiPE (MAO-B) is reported as 2.11 and the IC50 (MAO-B) is reported as 343 nM. For the same molecule, the IC50 (human CYP1A2) was 171 µM.

`COc1cccc(-c2cc3cc(OC)ccc3oc2=O)c1` [derivative 8, 6-methoxy-3-(3-methoxyphenyl)-2H-chromen-2-one] was tested, and the inhibition at 10 µM (MAO-B) was 112%, the LiPE (MAO-B) was 3.53 and the IC50 (MAO-B) was ~230 nM and 230 nM and 231 nM. The IC50 (human CYP1A2) was 2.3 µM.

Work on `COc1cccc(-c2cc3ccccc3oc2=O)c1` [derivative 11, 3-(3-methoxyphenyl)-2H-chromen-2-one] yielded an inhibition at 10 µM (MAO-B) of 90.3%, a LiPE (MAO-B) of 3.04 and an IC50 (MAO-B) of 798 nM. For the same molecule, the IC50 (human CYP1A2) was 1.6 µM.

For `COc1ccc(-c2cc3ccc(O)cc3oc2=O)cc1` [derivative 12, 7-hydroxy-3-(4-methoxyphenyl)-2H-chromen-2-one], the inhibition at 10 µM (MAO-B) was 85.9%, the LiPE (MAO-B) was 3.53 and the IC50 (MAO-B) was 955 nM. For the same molecule, the IC50 (human CYP1A2) was 170 µM.

For `COc1ccc2oc(=O)c(-c3cc(F)c(F)cc3F)cc2c1` [derivative 15, 6-methoxy-3-(2,4,5-trifluorophenyl)-2H-chromen-2-one], the inhibition at 10 µM (MAO-B) was 87.2%, the LiPE (MAO-B) was 2.80 and the IC50 (MAO-B) was 292 nM. It also gave an IC50 (human CYP1A2) of 3 µM.

For `COc1ccc2cc(-c3cc(F)c(F)cc3F)c(=O)oc2c1` [derivative 16, 7-methoxy-3-(2,4,5-trifluorophenyl)-2H-chromen-2-one], the inhibition at 10 µM (MAO-B) was 77.6%, the LiPE (MAO-B) was 2.13 and the IC50 (MAO-B) was 1430 nM. It also gave an IC50 (human CYP1A2) of 4.5 µM.

Work on `COc1ccc2oc(=O)c(-c3ccc(N(C)C)cc3)cc2c1` [derivative 18, 3-(4-(dimethylamino)phenyl)-6-methoxy-2H-chromen-2-one] yielded an inhibition at 10 µM (MAO-B) of 93.9%, a LiPE (MAO-B) of 2.72 and an IC50 (MAO-B) of 617 nM. For the same molecule, the IC50 (human CYP1A2) was 17 µM.

`COc1ccc2cc(-c3ccc(O)c(F)c3)c(=O)oc2c1` [derivative 20, 3-(3-fluoro-4-hydroxyphenyl)-7-methoxy-2H-chromen-2-one] gave an inhibition at 10 µM (MAO-B) of 101%, a LiPE (MAO-B) of 3.70 and an IC50 (MAO-B) of 391 nM. It also gave an IC50 (human CYP1A2) of 30 µM.

`COc1ccc2oc(=O)c(-c3ccc(F)cc3)cc2c1` [derivative 21, 3-(4-fluorophenyl)-6-methoxy-2H-chromen-2-one] showed an inhibition at 10 µM (MAO-B) of 88.8%, a LiPE (MAO-B) of 3.04 and an IC50 (MAO-B) of 433 nM. It also gave an IC50 (human CYP1A2) of 3 µM.

With `COc1ccc2oc(=O)c(-c3ccc(O)c(F)c3)cc2c1` [derivative 22, 3-(3-fluoro-4-hydroxyphenyl)-6-methoxy-2H-chromen-2-one] the inhibition at 10 µM (MAO-B) was 94.9%, the LiPE (MAO-B) was 3.35 and the IC50 (MAO-B) was 831 nM. The IC50 (human CYP1A2) was 1.5 µM.

Molecule `Cc1ccc2oc(=O)c(-c3ccc(F)cc3)cc2c1` [derivative 23, 3-(4-fluorophenyl)-6-methyl-2H-chromen-2-one] has an inhibition at 10 µM (MAO-B) of 83.5%, a LiPE (MAO-B) of 2.46 and an IC50 (MAO-B) of 902 nM. It also gave an IC50 (human CYP1A2) of 3 µM.

`O=c1oc2ccc(O)cc2cc1-c1ccc(F)cc1` [derivative 24, 3-(4-fluorophenyl)-6-hydroxy-2H-chromen-2-one] was tested, and the inhibition at 10 µM (MAO-B) was 89.1%, the LiPE (MAO-B) was 3.37 and the IC50 (MAO-B) was 1060 nM. For the same molecule, the IC50 (human CYP1A2) was 3 µM.

In the case of `COc1cccc(-c2cc3ccc(OC)cc3oc2=O)c1` [derivative 25], the MAO-B inhibition % (MAO-B) is reported as 67.49% and the IC50 (human CYP1A2) is reported as 35 µM.

`Cc1ccc(-c2cc3ccc(O)cc3oc2=O)cc1` [derivative 27] was tested, and the MAO-B inhibition % (MAO-B) was 61.91% and the IC50 (human CYP1A2) was 180 µM.

`CC(=O)Oc1ccc2cc(-c3ccc(F)cc3)c(=O)oc2c1` [derivative 28] showed an MAO-B inhibition % (MAO-B) of 59.20% and an IC50 (human CYP1A2) of 114 µM.

In the case of `O=c1oc2ccccc2cc1-c1ccc(O)cc1` [derivative 29], the MAO-B inhibition % (MAO-B) is reported as 53.65% and the IC50 (human CYP1A2) is reported as 26 µM.

For `O=c1oc2cc(O)ccc2cc1-c1ccc(O)cc1` [derivative 30], the MAO-B inhibition % (MAO-B) was 52.68% and the IC50 (human CYP1A2) was 22 µM.

`O=c1oc2ccccc2cc1-c1cccc(O)c1` [derivative 31] gave an MAO-B inhibition % (MAO-B) of 49.60% and an IC50 (human CYP1A2) of 7 µM.

`COc1ccc(-c2cc3cccc(O)c3oc2=O)cc1` [derivative 33] gave an MAO-B inhibition % (MAO-B) of 47.64% and an IC50 (human CYP1A2) of 86 µM.

`COc1ccc(-c2cc3ccccc3oc2=O)cc1` [derivative 36] gave an MAO-B inhibition % (MAO-B) of 41.12% and an IC50 (human CYP1A2) of 26 µM.

Work on `O=c1oc2ccc(O)cc2cc1-c1cccc(O)c1` [derivative 38] yielded an MAO-B inhibition % (MAO-B) of 27.16% and an IC50 (human CYP1A2) of 24 µM.

Work on `O=c1oc2cc(O)ccc2cc1-c1ccc(F)cc1` [derivative 39] yielded an MAO-B inhibition % (MAO-B) of 26.44% and an IC50 (human CYP1A2) of 240 µM.

For `O=c1oc2cc(O)ccc2cc1-c1ccccc1` [derivative 41], the “MAO-B inhibition (in words)” value (MAO-B) was “activity is lost”, the MAO-B inhibition % (MAO-B) was 23.82% and the IC50 (human CYP1A2) was 8 µM.

In the case of `COc1ccc2oc(=O)c(-c3ccc(Oc4ccc(F)cc4)cc3)cc2c1` [derivative 46], the MAO-B inhibition % (MAO-B) is reported as 19.73% and the IC50 (human CYP1A2) is reported as 240 µM.

With `O=c1oc2ccc(O)cc2cc1-c1ccc(O)cc1` [derivative 48] the MAO-B inhibition % (MAO-B) was 15.50% and the IC50 (human CYP1A2) was 33 µM.

Source: publication PMC5840146, “Structure-Activity Relationship Analysis of 3-Phenylcoumarin-Based Monoamine Oxidase B Inhibitors” (Frontiers in Chemistry, 2018)
